Nine compounds from ChEMBL document CHEMBL1777706, “Discovery of selective and orally available spiro-3-piperidyl ATP-competitive MK2 inhibitors” (Bioorg Med Chem Lett, 2011) can be followed below.

For assay [1], the target named is Serine/threonine-protein kinase Chk2 (Homo sapiens) (UniProt O96017). In words: Inhibition of CHK2 at 1 uM.
In assay [2] the target is T1, Serine/threonine-protein kinase 17A (Homo sapiens) (UniProt Q9UEE5).
T1 sequence (whole entry): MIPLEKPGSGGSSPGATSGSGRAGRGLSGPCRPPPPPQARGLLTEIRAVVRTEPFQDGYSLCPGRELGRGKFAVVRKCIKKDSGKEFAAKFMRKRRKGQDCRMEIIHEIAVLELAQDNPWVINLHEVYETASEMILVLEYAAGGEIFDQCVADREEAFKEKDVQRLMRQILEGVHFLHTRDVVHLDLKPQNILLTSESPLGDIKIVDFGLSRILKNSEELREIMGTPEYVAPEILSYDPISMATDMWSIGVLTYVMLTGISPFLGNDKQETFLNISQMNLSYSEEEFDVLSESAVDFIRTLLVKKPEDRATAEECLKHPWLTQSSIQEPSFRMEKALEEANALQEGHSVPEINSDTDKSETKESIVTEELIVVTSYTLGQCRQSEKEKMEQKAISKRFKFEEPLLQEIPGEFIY
In words: Inhibition of DRAK1 at 1 uM.

For assay [3], the target named is MAP kinase-activated protein kinase 2 (Homo sapiens, UniProt P49137). The assay can be described thus: Inhibition of MK2 pretreated for 30 mins before fluorescein labeled substrate peptide addition measured after 2 hrs by IMAP assay.
MAP kinase-activated protein kinase 2, sequence (P49137 whole entry): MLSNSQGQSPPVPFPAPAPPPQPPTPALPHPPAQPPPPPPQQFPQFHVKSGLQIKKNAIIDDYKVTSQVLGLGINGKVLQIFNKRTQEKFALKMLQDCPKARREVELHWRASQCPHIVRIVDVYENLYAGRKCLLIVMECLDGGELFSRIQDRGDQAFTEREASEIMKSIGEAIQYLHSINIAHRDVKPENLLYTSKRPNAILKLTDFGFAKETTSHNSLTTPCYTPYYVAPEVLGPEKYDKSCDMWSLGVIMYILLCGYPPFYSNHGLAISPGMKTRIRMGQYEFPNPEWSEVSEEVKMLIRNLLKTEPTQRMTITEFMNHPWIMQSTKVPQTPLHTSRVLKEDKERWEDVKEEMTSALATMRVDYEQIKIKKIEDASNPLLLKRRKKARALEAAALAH
The target of assay [4] is Mitogen-activated protein kinase 3 (Homo sapiens) (UniProt P27361). In words: Inhibition of ERK1 at 1 uM.
Mitogen-activated protein kinase 3 (Homo sapiens), sequence (P27361 whole entry): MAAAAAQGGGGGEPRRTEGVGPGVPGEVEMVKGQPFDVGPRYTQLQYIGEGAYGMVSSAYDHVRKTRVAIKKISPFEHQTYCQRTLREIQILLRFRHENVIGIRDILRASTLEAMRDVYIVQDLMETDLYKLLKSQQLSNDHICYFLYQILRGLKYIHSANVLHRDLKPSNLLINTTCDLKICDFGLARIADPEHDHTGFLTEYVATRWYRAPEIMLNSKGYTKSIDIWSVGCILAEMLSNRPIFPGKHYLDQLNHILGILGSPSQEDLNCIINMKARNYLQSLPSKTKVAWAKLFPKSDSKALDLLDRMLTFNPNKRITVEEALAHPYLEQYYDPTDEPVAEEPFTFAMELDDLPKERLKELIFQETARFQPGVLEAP
Assay [5] concerns the target Serine/threonine-protein kinase pim-1 (Homo sapiens) (UniProt P11309). The assay can be described thus: Inhibition of PIM1 at 1 uM.
In assay [6] the target is Mitogen-activated protein kinase 1 (Homo sapiens) (UniProt P28482). In words: Inhibition of ERK2 at 1 uM.
Mitogen-activated protein kinase 1 (Homo sapiens), sequence (P28482 whole entry, looked up): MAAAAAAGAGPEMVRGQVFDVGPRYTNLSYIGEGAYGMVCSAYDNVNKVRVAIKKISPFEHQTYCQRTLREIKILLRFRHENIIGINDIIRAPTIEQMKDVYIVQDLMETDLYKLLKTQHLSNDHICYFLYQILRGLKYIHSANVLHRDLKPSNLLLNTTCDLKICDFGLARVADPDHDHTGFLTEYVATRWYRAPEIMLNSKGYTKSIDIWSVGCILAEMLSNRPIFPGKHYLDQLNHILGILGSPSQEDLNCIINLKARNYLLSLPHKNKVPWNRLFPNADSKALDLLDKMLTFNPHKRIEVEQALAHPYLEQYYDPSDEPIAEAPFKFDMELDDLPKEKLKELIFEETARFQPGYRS
The subject of assay [7] is THP-1. The assay can be described thus: Antiinflammatory activity in human THP1 cells assessed as inhibition of LPS-induced TNFalpha production pretreated 30 mins before LPS challenge measured after 4 hrs. It is filed as functional, cell-based.
In assay [8] the target is Serine/threonine-protein kinase pim-3 (Homo sapiens) (UniProt Q86V86). The assay can be described thus: Inhibition of PIM3 at 1 uM.
A short description of assay [9]: Inhibition of p38.

Calls of active or inactive are those of the source. The calls are words filed in the database; no cut-off is given here.

Serine/threonine-protein kinase Chk2 (Homo sapiens), sequence (O96017 whole entry): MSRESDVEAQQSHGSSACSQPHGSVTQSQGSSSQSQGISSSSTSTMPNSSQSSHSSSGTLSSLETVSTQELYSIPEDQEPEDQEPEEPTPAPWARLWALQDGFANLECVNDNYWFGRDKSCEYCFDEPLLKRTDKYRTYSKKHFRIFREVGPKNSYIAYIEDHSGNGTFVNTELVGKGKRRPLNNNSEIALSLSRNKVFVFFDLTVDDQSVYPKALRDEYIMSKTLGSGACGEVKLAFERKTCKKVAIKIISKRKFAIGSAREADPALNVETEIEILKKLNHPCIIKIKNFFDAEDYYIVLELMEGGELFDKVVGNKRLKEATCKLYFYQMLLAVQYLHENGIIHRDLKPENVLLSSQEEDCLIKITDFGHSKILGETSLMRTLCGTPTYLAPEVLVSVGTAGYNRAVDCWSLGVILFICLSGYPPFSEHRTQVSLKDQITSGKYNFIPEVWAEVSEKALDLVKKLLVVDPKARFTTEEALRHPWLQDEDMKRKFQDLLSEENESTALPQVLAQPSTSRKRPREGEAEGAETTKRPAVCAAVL
Serine/threonine-protein kinase pim-1 (Homo sapiens), sequence (P11309 whole entry, looked up): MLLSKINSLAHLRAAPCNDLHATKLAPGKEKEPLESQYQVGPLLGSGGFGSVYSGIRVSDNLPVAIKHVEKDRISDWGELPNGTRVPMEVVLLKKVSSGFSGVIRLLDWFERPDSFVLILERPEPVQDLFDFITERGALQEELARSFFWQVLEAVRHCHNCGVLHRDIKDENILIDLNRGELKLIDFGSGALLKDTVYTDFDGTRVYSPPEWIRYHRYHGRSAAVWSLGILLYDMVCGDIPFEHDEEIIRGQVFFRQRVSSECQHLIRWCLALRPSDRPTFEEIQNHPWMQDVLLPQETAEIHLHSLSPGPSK

What is called inhibition is how much of the control response was suppressed. As a reminder, the EC50 is the concentration at which the effect is half-maximal. Take `CC(C)(C)c1ccc(-c2nccc(-c3cc4c([nH]3)C3(CCNCC3)CNC4=O)n2)cc1`: the inhibition in assay [1], in [2], in assay [4], in assay [5], in [6] and in assay [8] was over 80% in each case. Besides, the EC50 is 0.0062 µM in assay [3] and 5.9 µM in assay [7]. In addition, in [9], the inhibition result was “inactive”.
Take `COc1cncc(-c2nccc(-c3cc4c([nH]3)C3(CCNCC3)CNC4=O)n2)c1`: the inhibition in assay [1], in [2], in [4], in [5], in [6] and in assay [8] was over 80% throughout. Besides, the results for the 50% effective concentration (EC50) in [3] and in [7] were 0.0069 µM and over 10 µM, respectively. For the same compound, the inhibition result in assay [9] was “inactive”.
In the case of `O=C1NCC2(CCNCC2)c2[nH]c(-c3ccnc(-c4cccc(C(F)(F)F)c4)n3)cc21`, the inhibition in [1], in assay [2], in assay [4], in assay [5], in assay [6] and in assay [8] was over 80% each time. Besides, the results for the concentration giving a half-maximal response (EC50) in [3] and in [7] were 0.015 µM and 4.2 µM, respectively. In addition, in assay [9], the inhibition result is “inactive”.
Consider `CCC(=O)Nc1ccc(-c2nccc(-c3cc4c([nH]3)C3(CCNCC3)CNC4=O)n2)cn1`, for which the inhibition in assay [1], in [2], in assay [4], in assay [5], in assay [6] and in assay [8] was over 80% in each case. In addition, the EC50 is 0.0062 µM in assay [3] and over 10 µM in assay [7]. Also, the inhibition result in assay [9] was “inactive”.
Consider `Nc1ccc(-c2nccc(-c3cc4c([nH]3)C3(CCNCC3)CNC4=O)n2)cn1`, for which the inhibition in assay [1], in assay [2], in assay [4], in assay [5], in assay [6] and in [8] was over 80% in each case. Further, the EC50 in [3] was 0.015 µM; in assay [7], over 10 µM. Further, in [9], the inhibition entry is “inactive”.
As to `CC(=O)c1ccc(-c2nccc(-c3cc4c([nH]3)C3(CCNCC3)CNC4=O)n2)cc1`, the inhibition in assay [1], in assay [2], in assay [4], in assay [5], in assay [6] and in assay [8] was over 80% in each case. Besides, the EC50 in assay [3] is 0.0098 µM; in assay [7], 5 µM. For the same compound, the inhibition entry in assay [9] is “inactive”.
As for `O=C1NCC2(CCNCC2)c2[nH]c(-c3ccnc(-c4ccc(C(F)(F)F)cc4)n3)cc21`, the inhibition in assay [1], in assay [2], in assay [4], in [5], in [6] and in assay [8] was over 80% throughout. Further, the concentration giving a half-maximal response (EC50) amounted to 0.0069 µM in assay [3] and 6.3 µM in assay [7]. In addition, the inhibition result in assay [9] was “inactive”.
Take `O=C1NCCc2[nH]c(-c3ccnc(-c4ccccc4F)c3)cc21`: the inhibition in assay [1], in assay [2], in [5] and in assay [8] was over 80% each time. The EC50 in [7] came to 9.1 µM. The inhibition entry in [9] is “inactive”.
As for `O=C1NCC2(CCNCC2)c2[nH]c(-c3ccnc(-c4cnc5ccccc5c4)n3)cc21`, the inhibition in assay [1], in [2], in assay [4], in assay [5], in [6] and in assay [8] was over 80% each time. The concentration for a half-maximal effect (EC50) in assay [7] was found to be 4.8 µM. For the same compound, the inhibition entry in assay [9] was “inactive”.
